# In patent EP1024807B1, “USE OF THE COMPOUND 2-METHOXYPHENYL-1-METHYL-5P-METHYLBENZOYL-PYRROL-2-ACETAMIDO ACETATE FOR THE PRODUCTION OF AN ANTI-INFLAMMATORY DRUG WITH PREVENTION OF GASTRIC HYPERSECRETION AND RENAL IMPAIRMENT” (MEDOSAN Ricerca S.r.l., priority 1997, dated 1999):
# Entries after “also recorded” stand apart in the source; their conditions may differ.
# Key:
# gastric PGE2 = assay: Effect on gastric PGE2 in the rat; format: in vivo
# Description: Moreover, as with all the NSAIDs currently aveilable, it inhibits gastric PGE2 in the rat, albeit to a lesser degree than ASA (Table 7).
# Rats = assay: Adjuvant arthritis (joint diameter and patellar bone mass); format: in vivo; details: for Swelling Diameter difference (L-R) / Joint diameter (mm) Left / Joint diameter (mm) Right: day 0-3; for Joint diameter (mm) Left / Bone mass (mg) Left: left = arthritic joint; for Joint diameter (mm) Right / Bone mass (mg) Right: right = saline control joint; for % Change: ([left-right]/right)X100; for Bone loss Left-Right / Bone mass (mg) Left / Bone mass (mg) Right: patellar bone
# Experimental: The drugs were administered daily by oral gavage for 4 days (day 0-3); piroxicam and MED 15 were dissolved in 5% Gum arabic + 0.01% Tween 80, and administered in a volume of 0.5ml. Piroxicam was administered as 3mg/kg and MED 15 was administered as 25, 50 and 100mg/kg doses. Table 8 bis illustrating dosage regimes. L=left stifle joint, R=Right stifle joint.
# Under halothane anaesthesia, rats received 200µg of heat-killed finely ground Mycobactyerium tubercolosis in 25µl (80mg/10ml sterile saline) injected intra-articulary into the left stifle joint. The contralateral joint received 25µl 0.9% sterile saline. Control animals received 25µl of 0.9% sterile saline in both knees. SGE 50µl microsyringes with a volume lock calibrated at 25µl were used with 30G stainless steel needles. Solutions were prepared sterile, and aseptic technique was used throughout, with sterilisation of syringes between groups.
# The rats were killed by carbon dioxide suffocation. The body weight was noted and the skin overlying the stifle joints was divided and the joint diameters assessed in mm using Mitutoyo vernier callipers (530-312, 0.02mm).
# The patellae were dissected, weighed (Sartorius, 0.01mg) and then immersed in 1ml digestion buffer (see below) to remove soft tissue.
# Digestive buffer was prepared fresh to the following formula; disodium hydrogen orthophosphate 20mM, EDTA 1mM and diothiothreitol at 2mM. Papain (EC 3.4.22.2) was added at a concentration of 6U/ml. Each patella was digested in 1ml of digestive buffer at 56°C for 4 hours. The residual paterllar bones were dried (100°C 24 hours) and weighed (Sartorius 0.01mg).
# Results are presented as follows: left and right parameter alone, the difference between arthritic and contralateral control joint (left-right); and % difference between arthritic and control joints ([left-right]/right]X100).
# Calculations were carried out using the spreadsheet program Lotus 123. Statistical comparisons were made between the absolute differences using INSTAT Mann Whitney unpaired two-tailed statistical test.
# Anaesthetized Rat = assay: Drug safety trials: blood pressure and cardiovascular system; details: in vivo
# Description: From a toxicological viewpoint the drug offers an excellent torability profile.
# Cynomolgous monkey = assay: Chronic oral administration for 52 weeks, gastric damage; format: in vivo
# Saccharomycetes D4 = assay: Mitotic conversion test; format: cell-based
# [1] = test system: human lymphocites cultivated in vitro; assay: Chromosome aberrations in lymphocytes in vitro; format: cell-based
# rat = assay: Carcinogenesis studies, gavage over the life-span; format: in vivo; details: gavage for a period covering the animal's life-span
# [2] = test system: rat isolated stomach strips; assay: Gastric motility in isolated stomach strips, acetylcholine and serotonin as agonists; details: acetilcholine and serotonin as agonists
# gastric acid secretion = assay: Gastric acid secretion in the rat; format: in vivo
# Description: On the basis of the above series of observations, we decided to study the pharmacological behaviour of a number of widely used NSAIDs (including amtolmetin guacyl) towards the gastric mucosa in the rat, as previously described. […] The first hypothesis was that we were deling with an anti-H2 drug, given the fact that its potency could be compared with that of cimetidine.
# The introduction of a guaiacol moiety into the amtolmetin guacyl molecule led to the insertion of a vanilloid radical which confers gastroprotective properties to the molecule.
# gastric mucosa = assay: Gastroprotective action in vivo with an H1 receptor inhibitor; parameters: species or system rat; details: in the presence of an inhibitor of H1 receptors, fig. 17 and 18
# Description: In the in vivo experimentation, evaluated as effect of the product both on gastric mucosal secretion and on the healthy condition of the mucosa itself, it was noted that in the presence of an inhibitor of H1 receptors (therefore a typical antihistamine agent), the gastroprotective effect of amtolmetin guacyl drops out. […] All of this constitutes a precise forewarning of the association of amtolmetin guacyl with H1 receptor inhibiting substances on pain of loss of the gastroprotective properties of the former (fig. 17 and 18).
# [3] = test system: patients with rheumatoid arthritis in the active phase; assay: Clinical trials in rheumatoid arthritis; format: in vivo, man; details: 150 patients, 30 days; versus ibuprofen, indomethacin, piroxicam, tolmetin; listed as Amtolmetin guacyl
# Description: Amtolmetin guacyl was compared with ibuprofen, indomethacin, piroxicam and tolmetin.
# [4] = test system: extra-articular rheumatism; assay: Clinical trials in extra-articular rheumatism; format: in vivo, man; details: 90 patients, 14 days; versus diclofenac, naproxen, piperazine propionate
# Description: In extra-articular rheumatism amtolmetin guacyl was compared with diclofenac, naproxen and piperazine propionate.
# post-operative pain = assay: Clinical trials in post-operative pain; format: in vivo, man
# Experimental: As reported in Table 14, the analgesic properties of amtolmetin guacyl were tested in postoperative pain with good results. […] The peak effect is obtained only after 2 hours, and it is maintained for 6 hours.
# [5] = test system: post-traumatic arthralgia; assay: Clinical comparison in post-traumatic arthralgia; format: in vivo, man
# Description: The same can be said in the treatment of post-traumatic arthralgia.
# COX1 (cyclooxygenase 1) = target: T1, COX1 (cyclooxygenase 1) (Rattus norvegicus, UniProt Q63921); assay: Pharmacological studies in rats: cyclooxygenase inhibition; details: in vivo
# T1 construct: the pharmacological studies conducted in rats; from tissue; host or cells: rat (in vivo; tissue not given)
# platelet aggregation = assay: Platelet aggregation
# Description: For all of these reasons the drug was expected to induce gastric damage and inhibit platelet aggregation.
# T1 sequence (Q63921 27-602): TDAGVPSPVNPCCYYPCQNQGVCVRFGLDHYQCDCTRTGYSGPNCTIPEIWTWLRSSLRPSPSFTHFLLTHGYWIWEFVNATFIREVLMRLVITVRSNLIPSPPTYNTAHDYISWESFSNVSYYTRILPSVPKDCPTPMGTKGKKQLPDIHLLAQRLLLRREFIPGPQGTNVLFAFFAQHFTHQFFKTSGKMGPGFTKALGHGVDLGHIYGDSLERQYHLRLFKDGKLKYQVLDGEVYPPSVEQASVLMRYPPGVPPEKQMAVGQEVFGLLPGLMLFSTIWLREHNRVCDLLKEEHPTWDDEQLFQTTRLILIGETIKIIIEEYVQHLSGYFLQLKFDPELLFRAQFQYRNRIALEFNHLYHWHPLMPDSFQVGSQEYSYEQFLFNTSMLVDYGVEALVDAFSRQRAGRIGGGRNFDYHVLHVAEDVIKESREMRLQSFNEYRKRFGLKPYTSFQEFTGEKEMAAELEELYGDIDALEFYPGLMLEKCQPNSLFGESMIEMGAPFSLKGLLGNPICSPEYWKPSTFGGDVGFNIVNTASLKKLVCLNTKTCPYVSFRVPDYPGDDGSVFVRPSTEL
smiles,measurement,setting,value
"COc1ccccc1OC(=O)CNC(=O)Cc1ccc(C(=O)c2ccc(C)cc2)n1C [MED 15, 2-methoxyphenyl-1-methyl-5p-methylbenzoylpyrrol-2-acetamido acetate]",%inhibition,gastric PGE2; gastric PGE2 versus controls,69.9%
same,PGE2 (ngtg^Δ tissue)±S.E.,"gastric PGE2; gastric tissue, rat, controls 108.7±23.9",32.7±8.5 nanograms for gram of tissue
same,Swelling Diameter difference (L-R),Rats; 25mg/kg daily oral,2.22 mm
same,Joint diameter (mm) Left,Rats; 25mg/kg daily oral,11.57 mm
same,Joint diameter (mm) Right,Rats; 25mg/kg daily oral,9.35 mm
same,Swelling Diameter difference (L-R),Rats; 50mg/kg daily oral,2.06 mm
same,Joint diameter (mm) Left,Rats; 50mg/kg daily oral,10.95 mm
same,Joint diameter (mm) Right,Rats; 50mg/kg daily oral,8.88 mm
same,Swelling Diameter difference (L-R),Rats; 100mg/kg daily oral,1.38 mm
same,Joint diameter (mm) Left,Rats; 100mg/kg daily oral,10.26 mm
same,Joint diameter (mm) Right,Rats; 100mg/kg daily oral,8.88 mm
same,protective effect against bone loss compared to piroxicam,Rats; dose of 100mg/kg,not significantly different to piroxicam
same,% Change,"Rats; joint diameter, 25mg/kg daily oral",24.04%
same,% Change,"Rats; joint diameter, 50mg/kg daily oral",23.36%
same,% Change,"Rats; joint diameter, 100mg/kg daily oral",15.71%
same,% Change,"Rats; patellar bone mass, 25mg/kg daily oral",45.45%
same,% Change,"Rats; patellar bone mass, 50mg/kg daily oral",40.55%
same,% Change,"Rats; patellar bone mass, 100mg/kg daily oral",31.85%
same,protection against bone loss,"Rats; patellar bone mass, arthritic groups",dose dependent protective effect
same,Bone loss Left-Right,Rats; 25mg/kg daily oral,-1.94 mg
same,Bone mass (mg) Left,Rats; 25mg/kg daily oral,2.33 mg
same,Bone mass (mg) Right,Rats; 25mg/kg daily oral,4.27 mg
same,Bone loss Left-Right,Rats; 50mg/kg daily oral,-1.69 mg
same,Bone mass (mg) Left,Rats; 50mg/kg daily oral,2.49 mg
same,Bone mass (mg) Right,Rats; 50mg/kg daily oral,4.18 mg
same,Bone loss Left-Right,Rats; 100mg/kg daily oral,-1.38 mg
same,Bone mass (mg) Left,Rats; 100mg/kg daily oral,2.97 mg
same,Bone mass (mg) Right,Rats; 100mg/kg daily oral,4.34 mg
same,effects on blood pressure and on the cardiovascular system,Anaesthetized Rat,absence of effects
same,gastric damage,Cynomolgous monkey,absence of gastric damage
same,mitotic conversion,Saccharomycetes D4,absence of amtolmetin guacyl-related damage
same,chromosomic aberrations,[1],absence of amtolmetin guacyl-related damage
same,Carcinogenesis,rat,innocuity
same,motility,[2],down-regulation of motility
same,basal acid secretion,"gastric acid secretion; basal, unstimulated",fails to modify
same,effect on gastric acid,"gastric acid secretion; rat, in vivo",reduction of gastric acid
same,activity on gastric secretion after CGRP antagonist,"gastric acid secretion; with CGRP8-37, peptone-stimulated, fig. 14",blockage
same,effect on gastric acid secretion after capsaicin receptor antagonist,"gastric acid secretion; with capsazepine, peptone-stimulated, fig. 16",inhibited by the capsazepine antagonist
same,gastroprotective effect,gastric mucosa,drops out
same,Evaluation of antiphlogistic activity,[3],significantly more rapid and marked anti-inflammatory activity compared to the reference NSAIDs; also recorded: Amtolmetin guacyl demonstrated statistical significant activity more rapid and more marked when compared to the reference NSAIDs in rheumatoid arthritis
same,Evaluation of antiphlogistic activity,[4],In this indication no significant differences were noted between amtolmetin guacyl and the reference compounds.
same,time at which the effect is already evaluable,post-operative pain; following administration,30 '
same,antalgic effect,post-operative pain; post-operative pain,statistically significant
same,time the effect is maintained,post-operative pain; post-operative pain,6 h
same,time to peak effect,post-operative pain; post-operative pain,2 h
same,duration of effect,[5],6 h
same,latency time,[5],20 min
same,time to reach peak effect,[5],1 h
same,inhibition of COX1,COX1 (cyclooxygenase 1),inhibition
same,platelet antiaggregating properties,platelet aggregation,significant platelet antiaggregating properties
